Measurements from the supplement of paper PMC10307832.

Legend:
Assay in all cases: relative viability (nuclei count vs DMSO), 5 days (fraction); higher = more cells survive
[1] = compound: CC1=C(C(=O)N2C=CSC2=N1)CCN3CCC(=C(C4=CC=CC=C4)C5=CC=C(C=C5)F)CC3 + CC(C)C[C@H](NC(=O)[C@H](Cc1ccccc1)NC(=O)c1cnccn1)B(O)O [Bortezomib] (partner 0.002 µM)
How it was run: (§1)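 Five library-drug doses in √10 steps were combined with a fixed anchor-drug dose, or a single drug was given alone, by pin tool to lung cancer cell lines in 1536-well plates the day after seeding. Nuclei were stained and counted after 5 days. Relative viability is the nuclei count in treated wells over that in vehicle wells, taken as the median of duplicate plates.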

[2] = compound: CC1=C(C(=O)N2C=CSC2=N1)CCN3CCC(=C(C4=CC=CC=C4)C5=CC=C(C=C5)F)CC3 + CS(=O)(=O)N1CCN(Cc2cc3nc(-c4cccc5[nH]ncc45)nc(N4CCOCC4)c3s2)CC1 [Pictilisib] (partner 1 µM)
How it was run: as §1

[3] = compound: CC1=C(C(=O)N2C=CSC2=N1)CCN3CCC(=C(C4=CC=CC=C4)C5=CC=C(C=C5)F)CC3 + O=C(c1cc(Cc2n[nH]c(=O)c3ccccc23)ccc1F)N1CCN(C(=O)C2CC2)CC1 [Olaparib] (partner 8 µM)
How it was run: as §1

[4] = compound: CC1=C(C(=O)N2C=CSC2=N1)CCN3CCC(=C(C4=CC=CC=C4)C5=CC=C(C=C5)F)CC3 + CC(=O)Nc1cccc(-n2c(=O)n(C3CC3)c(=O)c3c(Nc4ccc(I)cc4F)n(C)c(=O)c(C)c32)c1 [Trametinib] (partner 0.02 µM)
How it was run: as §1

Cell Line	relative viability ([1]; first compound 0.08 µM)	relative viability ([1]; first compound 0.253 µM)	relative viability ([1]; first compound 0.8 µM)	relative viability ([1]; first compound 2.53 µM)	relative viability ([1]; first compound 8 µM)	relative viability ([2]; first compound 0.08 µM)	relative viability ([2]; first compound 0.253 µM)	relative viability ([2]; first compound 0.8 µM)	relative viability ([2]; first compound 2.53 µM)	relative viability ([2]; first compound 8 µM)	relative viability ([3]; first compound 0.08 µM)	relative viability ([3]; first compound 0.253 µM)	relative viability ([3]; first compound 0.8 µM)	relative viability ([3]; first compound 2.53 µM)	relative viability ([3]; first compound 8 µM)	relative viability ([4]; first compound 0.08 µM)	relative viability ([4]; first compound 0.253 µM)	relative viability ([4]; first compound 0.8 µM)	relative viability ([4]; first compound 2.53 µM)	relative viability ([4]; first compound 8 µM)
ChaGo-K-1	1.24	0.989	0.761	1.34	0.94	0.976	0.593	0.476	0.937	0.604	0.451	0.415	0.411	0.458	0.416	0.821	0.926	0.961	0.963	0.673
EKVX	0.826	0.923	1.18	1.01	0.684	0.38	0.412	0.479	0.408	0.36	0.83	0.868	0.922	0.87	0.729	0.354	0.42	0.358	0.314	0.292
EMC-BAC-2	0.902	1.13	1.07	1.07	0.705	0.543	0.516	0.505	0.617	0.424	0.46	0.468	0.468	0.522	0.46	1		0.931	0.926	0.858
EPLC-272H		0.888	0.888	1.07	0.921		0.332	0.259	0.306	0.359	0.693		0.911	0.758	0.742	0.379	0.295	0.305	0.281	0.255
H3255	0.909	0.831	0.704	0.873	0.732	0.448	0.389	0.515	0.537	0.4	0.503	0.63	0.548	0.6	0.504	0.611	0.577	0.66	0.613	0.417
HARA	1.08	1.47	1.13	1.21	1.05	0.527	0.423	0.383	0.202	0.289	0.761	0.779	0.821	0.755	0.774	0.982	0.567	0.746	0.368	0.551
HCC-15	1.05	1.04	1.09	0.964	0.786	0.714	0.752	0.714	0.773	0.587	0.777	0.782	0.716	0.736	0.643	0.352	0.432	0.342	0.38	0.349
HCC-44	0.926	0.769	0.896	1.06	0.856	0.532	0.643	0.587	0.573	0.581	1.01	1.08	1.03	1.13	0.643	1.13	1.12	1.13	1.01	1.04
